Test results published in US7737182B2, “Pharmaceuticals for xerosis” (Taisho Pharmaceutical Co., Ltd., priority 2001, dated 2010).

Columns and labels:
human platelets = assay: Suppression of ADP-induced aggregation of human platelets; type: cell-based; conditions: human platelet-rich plasma, ADP (3 μM), Born method
Protocol: (A) Using the active ingredient of the present invention (compound No. 7) and PGD2 as a control for comparison, prostaglandin D receptor binding selectivity was determined with reference to the platelet aggregation suppressing action as the prostaglandin D receptor agonist action. 1. Human Platelet Aggregation Suppressing Action Suppression of ADP-Induced Aggregation of Human Platelets
The test was performed on purchased platelet-rich plasma (PRP) (6×10^8 platelets/mL) and platelet aggregation was measured based on the Born method (Nature, vol. 194, p. 927, 1962). To 100 μL of PRP, 5 μL of a 1 nM-3 μM test drug solution in ethanol was added and the mixture was incubated at 37° C. for 1 minute with stirring at 1000 rpm. To the resulting mixture, 5 μL of an aggregation inducer [ADP (3 μM)] was added to induce platelet aggregation and a maximum percent aggregation (a maximum change in light transmittance that occurred within 5 minutes after the induction of platelet aggregation) was determined by an aggregometer. The percent suppression of aggregation by each test drug was calculated from the maximum percent aggregation by the test drug as relative to the maximum percent aggregation by ethanol instead of the test drug solution and IC50 values were determined from the constructed dose-response curve.

[1] = test system: Fifty-week-old BALB/c male mice; assay: Aged mouse skin's barrier function, treatment test, TEWL (Test Example 7); type: in vivo; conditions: 50-week-old mice; 0.0001% in ethanol, 200 μL, once a day for 3 days
Protocol: Fifty-week-old BALB/c male mice (eight in each group) were shaven in a rostral dorsolateral area of 4 cm^2 (2 cm×2 cm) with electric clippers. Starting on the next day, a solvent (ethanol, 200 μL) or a drug dissolved in the solvent (compound No. 7 or PGD2, each being at 0.0001% in an amount of 200 μL) was applied to the shaven site for 3 days on once-a-day basis.
On the day next to the third application of the solvent or drug, TEWL at the same site was measured with Tewameter (TM210 of Courage & Khazawa, Germany) to evaluate the drug's action.

BALB/c male mice = assay: Mouse skin's barrier function, preventive test, TEWL (Test Example 6); type: in vivo; conditions: cohabitation with dermatitic NC/Nga mice; 0.01% in ethanol, 100 μL, once a day for 7 days
Protocol: Six-week-old BALB/c male mice in groups of six were shaven in a rostral dorsolateral area of 4 cm^2 (2 cm×2 cm) with electric clippers and kept in the same cage as NC/Nga mice that had developed dermatitis. From the day next to the start of cohabitation, a solvent (ethanol, 100 μL) or a drug dissolved in the solvent (compound No. 7, PGD2, PGF2α, or PGE1, all being at 0.01% in an amount of 100 μL) was applied to the shaven site for 7 days on once-a-day basis.
On the day next to the seventh application of the solvent or drug, the transepidermal water loss (TEWL) at the same site was measured with Tewameter (TM210 of Courage & Khazawa, Germany) to evaluate the drug's action, with the solvent-applied group being used as the control group.

guinea pig platelets = assay: Suppression of ADP-induced aggregation of guinea pig platelets; type: cell-based; conditions: Cavia porcellus; guinea pig platelet-rich plasma, ADP (3 μM)
Protocol: Ten-week-old Hartley male guinea pigs were anesthetized with pentobarbital (30 mg/kg, i.p. injected) and a total of 20 mL of blood was sampled into a syringe containing 2.0 mL of 3.8% sodium citrate. The blood was immediately centrifuged at 900 rpm for 10 minutes at 20° C. to recover the supernatant PRP. By further centrifugation at 3000 rpm for 10 minutes at 20° C., the supernatant PPP was recovered. The platelet count of PRP was diluted with PPP to 30×10^4 platelets/μL for subsequent use.
For platelet aggregation measurement, a platelet aggregation measuring instrument (PAM-8C) was employed. To 274 μL of PRP, 1 μL of a 0.287-95.7 nM test drug solution in ethanol was added and the mixture was incubated at 37° C. for 3 minutes with stirring at 1000 rpm. After the incubation, 25 μL of ADP (3 μM) was added to induce platelet aggregation and a maximum percent aggregation for 5 minutes was measured.
The percent suppression of aggregation by each test drug was calculated from the maximum percent aggregation by the test drug as relative to the maximum percent aggregation by ethanol instead of the test drug solution and IC50 values were determined from the constructed dose-response curve.

[2] = test system: NC/Nga mice manifesting atopic dermatitis; assay: Spontaneous itch-evoked scratching behavior of NC mice (Test Example 1); type: in vivo
Protocol: About 20-week old NC/Nga mice each weighing about 30 g and manifesting atopic dermatitis were purchased from SLC and subjected to the following experiment. A magnet was buried in both hind paws of each mouse and by detecting its magnetism, the movement of the paws was measured with an itch measuring system (product of Neuroscience; when the mouse makes an action, the magnets move accordingly and a current flows through the coil; the moving magnets cause a change in the current, which is detected, measured and analyzed). Among the scratching actions, those lasting 1.5 seconds or longer were considered itch-evoked and their number was counted continuously. […] The subsequent 24-hr itch-evoked scratching behavior was measured and the number of itch-evoked scratchings after drug administration was compared with the initial count. The experimental data was processed to calculate the percent itch suppression on the basis of the total 24-hr itch-evoked scratching counts before and after drug application. For significance testing, the itch-evoked scratching counts that were obtained before and after drug application from individual animals in each group treated with a specific concentration of drug were processed by a paired t-test. Percent itch suppression (%)=(itch-evoked scratching count before drug application−itch-evoked scratching count after drug application)×100/itch-evoked scratching count before drug application (Results)

[3] = target: T1, thromboxane (TP) receptor (Homo sapiens, UniProt P21731); assay: Human TP antagonistic action: [3H]SQ29548 binding to human washed platelets
T1 construct: endogenous in cells; host or cells: human washed platelets
T1 sequence (P21731 1-343): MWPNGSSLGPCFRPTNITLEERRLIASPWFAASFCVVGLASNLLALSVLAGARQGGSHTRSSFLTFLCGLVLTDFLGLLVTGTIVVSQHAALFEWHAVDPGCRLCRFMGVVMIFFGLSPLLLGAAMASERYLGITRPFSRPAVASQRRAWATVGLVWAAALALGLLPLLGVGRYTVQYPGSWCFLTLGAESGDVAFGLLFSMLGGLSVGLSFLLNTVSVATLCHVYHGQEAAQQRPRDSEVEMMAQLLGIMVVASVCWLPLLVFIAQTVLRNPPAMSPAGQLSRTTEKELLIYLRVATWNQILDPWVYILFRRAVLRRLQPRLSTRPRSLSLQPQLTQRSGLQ
Protocol: (C) The effect of the active ingredient of the present invention (compound No. 7) on a thromboxane (TP) receptor was measured as compared with the thromboxane agonist U44069 as a positive control drug.
The antagonistic action of the test drug on the [^3H]SQ29548 binding to human washed platelets was investigated on the basis of a documented method (J. Pharmacol. Exp. Ther., vol. 245, pp. 786-792, 1988).

IC50 (human platelets): 4.27 nM
IC50 (guinea pig platelets): 6.2 ± 2.3 nM
inhibition at 1 µM ([3]; 1 μM): 7%
inhibition at 10 µM ([3]; concentration of 10 μM): 28%
SMILES: O=C(O)CSCCCC[C@@H]1[C@@H](C#C[C@@H](O)C2CCCCC2)[C@H](O)C[C@H]1Cl [Compound No. 7]
transepidermal water loss (TEWL) compared to the control group [1]: significant decrease in TEWL
transepidermal water loss (TEWL) compared to the control group (BALB/c male mice): significant decrease in TEWL
Inhibition rate (%) (percent itch suppression) ([2]; concentration 0.000001% in 100% ethanol, 0.2 ml/mouse on dorsal skin, 24-hr scratching counts before vs after): 43.26%
Efficacy (significance, paired t-test) ([2]; concentration 0.000001%, scratching counts before vs after application): ** (**: P < 0.01)
